What was measured:
[1] = Examination of salts of Compound 17 for crystallization; assay type: physicochemical; details: for State: salt of Compound 17 with the stated counter base, concentrated from methanol, triturated with various solvents; for State of the salt: salts of Compound 17 with the named bases
Description: Then, the mixture was concentrated under reduced pressure and trituration was conducted with using various solvents. For the examination, ethyl acetate, methyl t-butyl ether, n-hexane and the like were used as the solvents.

[2] = Chemical stability test (residual percentage by HPLC after storage); assay type: physicochemical; details: for Residual percentage (%): relative to sample stored at −20° C., HPLC; for residual percentages: during storage under each condition
Description: With respect to Compound 17 and Crystalline forms A, B and C of Compound 18, chemical stability test was conducted according to the method and the condition below.
In a laboratory tube, approximately 1.5 to 3 mg of a test compound was weighed and stored under the condition below.
After storing, the residual percentage (%) of the sample stored under each condition relative to the area percentage of the main component in the sample stored at −20° C. was calculated with using HPLC. In addition, the appearance was observed by eye and compared with the sample stored at −20° C.
80° C.: One week, two weeks and one month
60° C.: Two weeks and one month
40° C.: Two weeks, one month, two months, four months and six months
25° C.-60% RH: Two months, four months and six months
5° C.: Two months, four months and six months
40° C.-75% RH (opened): Two weeks, one month, two months, four months and six months
25° C.-40% RH (opened): Two weeks, one month and two months
25° C.-60% RH (opened): Two weeks, one month and two months
25° C.-75% RH (opened): Two weeks, one month and two months
The samples to be compared with the samples above were stored at −20° C.
A sample to be evaluated was dissolved in a mixed solution of acetonitrile/20 mmol/L KH2PO4 aq. (pH3.0 with H3PO4) (1/1) and a solution of 1.0 mg/mL (concentration as a salt) was prepared.
Detector: Ultraviolet absorptiometer (measurement wavelength: 215 nm)
Column: CHIRALCEL OD-3R (150×4.6 mm, S-5 μm)
Column temperature: 25° C.
Mobile phase: Solution A: 20 mmol/L KH2PO4 aq. (pH3.0 with H3PO4), Solution B: CH3CN
Area measurement range: 35 minutes

bladder detrusor = experiment: Evaluation of the activity to contract the bladder detrusor (bladder strip specimens, Magnus system); assay type: tissue-based; details: rat bladder strip; for Change of tension (%): contraction evoked by potassium chloride solution (7.5 mmol/L) set at 100%
Description: Rats were anesthetized with pentobarbital, followed by abdominal incision to remove the bladders and the urethras. The bladder bodies were cut in the longitudinal direction to prepare strip specimens with a size of about 10×3 mm. Additionally, each of the urethras was also cut in the longitudinal direction to prepare specimens with a size of about 10×3 mm. The prepared specimens were suspended in Krebs buffer (37° C., 5 mL), which was aerated with a mixed gas of 95% O2 and 5% CO2. The tension values of the specimens were measured using a Magnus system equipped with an isometric transducer and an amplifier, and the measured values were recorded on a computer via a data collection system. The specimens were suspended with a load of about 0.5 g. More than 1 hr later, potassium chloride (100 mmol/L) was added and the maximal contraction response was observed. After washing with Krebs buffer, the specimens were suspended with a load of about 0.5 g for stabilization. A potassium chloride solution (7.5 mmol/L) was added to induce the contraction of the specimens. After the contraction-inducing response was stabilized, the test compound was added in a cumulative manner and the response was observed before and after the treatment with the drug. The change of tension (%) of a test compound of each concentration was calculated with setting the contraction evoked by the addition of potassium chloride solution (mg) at 100%.

| Molecule | State [1] | State of the salt [1] | also measured |
| --- | --- | --- | --- |
| C#CCN(C)C | Oily | – | – |
| c1ccc(CNCc2ccccc2)cc1 | Oily | – | – |
| CCCCNCCC | Oily | – | – |
| C1CCCNCC1 | Oily | – | – |
| C1=CCNCC1 | Oily | – | – |
| CCc1ncc[nH]1 | Oily | – | – |
| OC[C@@H]1CCCN1 | Oily | – | – |
| CN1CCCCC1 | Oily | – | – |
| COC1CCNCC1 | Oily | – | – |
| OC1CCNCC1 [4-hydroxypiperidine] | – | amorphous oily substances | – |
| C[C@@](O)(C/C=C/[C@H]1CCC(=O)[C@@H]1CCSc1nc(C(=O)O)cs1)CCC(F)=C(F)F [Compound 17, 2-[(2-{(1R,5R)-2-oxo-5-[(1E,4S)-7,8,8-trifluoro-4-hydroxy-4-methyl-1,7-octadien-1-yl]cyclopentyl}ethyl)thio]-1,3-thiazole-4-carboxylic acid] | – | – | Residual percentage (%) ([2]; 40° C.-75% RH-one month): 58.6%; Residual percentage (%) ([2]; 40° C.-one month): 76.0%; Residual percentage (%) ([2]; 60° C.-one month): 60.4%; residual percentages [2]: decreased |
| C[C@@](O)(C/C=C/[C@H]1CCC(=O)[C@@H]1CCSc1nc(C(=O)O)cs1)CCC(F)=C(F)F [Crystalline Form A, piperidin-4-ylmethanol 2-[(2-{(1R,5R)-2-oxo-5-[(1E,4S)-7,8,8-trifluoro-4-hydroxy-4-methyl-1,7-octadien-1-yl]cyclopentyl}ethyl)thio]-1,3-thiazole-4-carboxylate] | – | – | Residual percentage (%) ([2]; 40° C.-75% RH-one month): 92.0%; Residual percentage (%) ([2]; 40° C.-one month): 99.6%; Residual percentage (%) ([2]; 60° C.-one month): 98.6% |
| C[C@@](O)(C/C=C/[C@H]1CCC(=O)[C@@H]1CCSc1nc(C(=O)O)cs1)CCC(F)=C(F)F [Crystalline Form B, piperidin-4-ylmethanol 2-[(2-{(1R,5R)-2-oxo-5-[(1E,4S)-7,8,8-trifluoro-4-hydroxy-4-methyl-1,7-octadien-1-yl]cyclopentyl}ethyl)thio]-1,3-thiazole-4-carboxylate] | – | – | Residual percentage (%) ([2]; 40° C.-75% RH-one month): 92.6%; Residual percentage (%) ([2]; 40° C.-one month): 99.6%; Residual percentage (%) ([2]; 60° C.-one month): 98.3% |
| C[C@@](O)(C/C=C/[C@H]1CCC(=O)[C@@H]1CCSc1nc(C(=O)O)cs1)CCC(F)=C(F)F [Crystalline Form C, piperidin-4-ylmethanol 2-[(2-{(1R,5R)-2-oxo-5-[(1E,4S)-7,8,8-trifluoro-4-hydroxy-4-methyl-1,7-octadien-1-yl]cyclopentyl}ethyl)thio]-1,3-thiazole-4-carboxylate] | – | – | Residual percentage (%) ([2]; 40° C.-75% RH-one month): 97.5%; Residual percentage (%) ([2]; 40° C.-one month): 99.4%; Residual percentage (%) ([2]; 60° C.-one month): 97.9% |
| C1CCC(NC2CCCCC2)CC1 [Dicyclohexylamine] | Oily | amorphous oily substances | – |
| OCCNCCO [Diethanolamine] | Oily | amorphous oily substances | – |
| [Mg] [Magnesium] | Oily | amorphous oily substances | – |
| CCN(CC)CC [Triethylamine] | Oily | amorphous oily substances | – |
| OC1CCNCC1 [drawing 24] | Oily | – | – |
| CC(C)(C)N [t-Butylamine] | Oily | – | – |
| Arginine | Oily | amorphous oily substances | – |
| Lysine | Oily | amorphous oily substances | – |
| Piperidin-4-ylmethanol 2-[(2-{(1R,5R)-2-oxo-5-[(1E,4S)-7,8,8-trifluoro-4-hydroxy-4-methyl-1,7-octadien-1-yl]cyclopentyl}ethyl)thio]-1,3-thiazole-4-carboxylate [Compound 18] | Crystalline solid | – | residual percentages [2]: ≥ 90%; Change of tension (%) (bladder detrusor; 1 nmol/L): 5.97%; Change of tension (%) (bladder detrusor; 10 nmol/L): 54.35%; Change of tension (%) (bladder detrusor; 100 nmol/L): 177.91%; Change of tension (%) (bladder detrusor; 1 μmol/L): 245.91%; Effect on the bladder detrusor (in words) (bladder detrusor): contracted the bladder detrusor |
| Sodium | Oily | amorphous oily substances | – |

More lines, main results first:

| State [1] | State of the salt [1] | Molecule | also measured |
| --- | --- | --- | --- |
| Oily | – | CNCCOC | – |
| Oily | – | CNCCCO | – |
| Oily | – | CCNCCCCO | – |
| Oily | – | CNCCNC | – |
| Oily | – | c1ccc2c(c1)CNC2 | – |
| Oily | – | C=CCNCC=C | – |
| – | amorphous oily substances | CC1CCNCC1 [4-methylpiperidine] | – |
| – | amorphous oily substances | OCCC1CCNCC1 [4-piperidineethanol] | – |
| Oily | amorphous oily substances | [Ca] [Calcium] | – |
| Oily | amorphous oily substances | [K+] [Potassium] | – |
| Oily | – | OCCC1CCNCC1 [drawing 22] | – |
| Oily | – | CC1CCNCC1 [drawing 23] | – |
